Reference: patent US20230140276A1, “TRICYCLIC COMPOUNDS, PREPARATION METHOD AND MEDICAL USE THEREOF” (HEFEI INSTITUTE OF PHARMACEUTICAL INDUSTRY CO., LTD., priority 2020, published 2023)

Legend:
[1] = tested on: pilocarpine-induced saliva secretion; test: Pilocarpine-induced salivation in rats; conditions: 10 mg/kg intragastric; pilocarpine 1 mg/kg i.p. 15 minutes later; saliva collected 10 minutes
Procedure: Rats in each group were given corresponding drugs by intragastric administration. 15 minutes later, pilocarpine (1 mg/kg, dissolved in physiological saline) was injected intraperitoneally to induce saliva secretion. The rat was immediately anesthetized by intraperitoneal injection of 10% chloral hydrate. After the rat was anesthetized, the residual saliva in the oral cavity was taken out with a cotton ball in that the weighed cotton ball (M1) was placed in the oral cavity (two under the tongue and one for each on both sides). The cotton ball was taken out 10 minutes later and the weight of the cotton ball (M2) was immediately measured.
Inhibition rate=Saliva secretion in drug administration group/Saliva secretion in model group×100%

[2] = tested on: histamine-induced skin vascular permeability; test: Inhibitory effect on histamine-induced vascular permeability in mice; type: in vivo, ICR mice; conditions: Mus musculus, po; 5 mg/kg intragastric 1 hour before modeling; histamine phosphate 1 ug/0.1 mL; Evans Blue absorbance at 610 nm; read-out: Inhibition rate (%)
Procedure: Intragastric administration was performed 1 hour before modeling. The model group was given the corresponding solvent. […] 10% sodium sulfide was used to depilate the back of mice (3 cm×3 cm). The mice were injected 1 ug/0.1 mL of histamine phosphate physiological saline solution into the depilation site one hour after the administration, and injected 0.25% Evans Blue solution 4 ml/kg from the tail vein immediately after the injection. After 30 minutes, the mice were dislocated and sacrificed. The blue-stained part of the skin was removed and perforated (diameter 15 mm), cut into pieces and soaked in 1 ml of acetone-saline (7:3) solution. After 24 h, it was centrifuged (3000 r/min, 10 min) to take the supernatant. The absorbance of the sample was measured with an ultraviolet spectrophotometer at a wavelength of 610 nm and a blank zero calibration with acetone-physiological saline solution.

hERG potassium channel = hERG potassium channel (Homo sapiens, UniProt Q12809); test: hERG potassium channel activity test; type: biochemical
hERG potassium channel, sequence (Q12809 whole entry): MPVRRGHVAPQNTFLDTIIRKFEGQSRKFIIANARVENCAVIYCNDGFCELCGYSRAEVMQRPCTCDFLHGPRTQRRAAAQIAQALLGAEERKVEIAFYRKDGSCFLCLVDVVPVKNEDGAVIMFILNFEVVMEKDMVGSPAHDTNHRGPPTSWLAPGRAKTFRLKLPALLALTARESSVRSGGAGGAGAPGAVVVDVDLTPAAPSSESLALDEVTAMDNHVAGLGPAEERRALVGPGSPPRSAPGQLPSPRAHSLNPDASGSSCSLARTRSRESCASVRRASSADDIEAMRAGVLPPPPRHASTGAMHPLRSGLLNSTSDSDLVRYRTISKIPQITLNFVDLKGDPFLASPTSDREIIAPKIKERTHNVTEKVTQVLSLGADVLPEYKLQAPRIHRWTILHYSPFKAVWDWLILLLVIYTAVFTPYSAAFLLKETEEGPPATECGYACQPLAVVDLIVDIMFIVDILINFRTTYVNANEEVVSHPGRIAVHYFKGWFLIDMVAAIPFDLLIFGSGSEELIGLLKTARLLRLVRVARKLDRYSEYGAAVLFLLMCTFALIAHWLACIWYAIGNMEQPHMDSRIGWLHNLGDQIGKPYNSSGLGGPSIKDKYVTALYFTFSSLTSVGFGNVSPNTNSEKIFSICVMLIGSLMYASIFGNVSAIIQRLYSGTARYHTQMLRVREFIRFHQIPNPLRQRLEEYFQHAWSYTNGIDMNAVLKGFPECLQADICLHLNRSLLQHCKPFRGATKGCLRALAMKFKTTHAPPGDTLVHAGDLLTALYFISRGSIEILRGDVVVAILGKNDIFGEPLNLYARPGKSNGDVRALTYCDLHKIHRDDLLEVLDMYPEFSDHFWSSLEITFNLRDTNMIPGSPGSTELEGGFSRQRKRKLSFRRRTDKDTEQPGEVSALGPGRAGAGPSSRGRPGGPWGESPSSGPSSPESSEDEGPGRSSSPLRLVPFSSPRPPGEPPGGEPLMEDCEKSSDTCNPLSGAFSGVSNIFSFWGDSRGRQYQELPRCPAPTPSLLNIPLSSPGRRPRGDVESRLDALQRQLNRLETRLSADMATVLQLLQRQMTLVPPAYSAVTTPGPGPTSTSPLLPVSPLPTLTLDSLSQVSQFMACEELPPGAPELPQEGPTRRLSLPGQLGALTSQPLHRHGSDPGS

| Structure (SMILES) | Inhibition rate (%) [1] | inhibition in vivo at 5 mg/kg [2] | IC50 (hERG potassium channel) |
| --- | --- | --- | --- |
| CC(C)(C(=O)O)c1ccc(CCCN2CCC(=C3c4ccc(Cl)cc4CCc4cccnc43)CC2)c(C#N)c1 [Example 4, 2-(4-(3-(4-(8-chloro-5,6-dihydro-11H-benzo[5,6]cyclohepta[1,2-b]pyridine-11-ylidene)piperidine-1-yl)propyl)-3-cyano)-2-methylpropionic acid] | 8.72% | 65.4% | > 30 µM |
| CC(C)(C(=O)O)c1ccc(CCCN2CCC(=C3c4ccc(Cl)cc4CCc4cccnc43)CC2)c(OC(F)(F)F)c1 [Example 7, 2-(4-(3-(4-(8-chloro-5,6-dihydro-11H-benzo[5,6]cyclohepta[1,2-b]pyridine-11-enyl)piperidine-1-yl)propyl)-3-(trifluoromethoxy)phenyl)-2-methylpropionic acid] | 4.65% | 42.6% | > 30 µM |
| CC(C)(C(=O)O)c1ccc(CCCN2CCC(=C3c4ccc(Cl)cc4CCc4cccnc43)CC2)c(F)c1 [Example 8, 2-(4-(3-(4-(8-chloro-5,6-dihydro-11H-benzo[5,6]cyclohepta[1,2-b]pyridine-11-enyl)piperidine-1-yl)propyl)-3-fluorophenyl)-2-methylpropionic acid] | 8.23% | 34.9% | > 30 µM |
| Cc1cc(CCCN2CCC(=C3c4ccc(Cl)cc4CCc4cccnc43)CC2)ccc1C(C)(C)C(=O)O [Example 11, 2-(4-(3-(4-(8-chloro-5,6-dihydro-11H-benzo[5,6]cyclohepta[1,2-b]pyridine-11-enyl)piperidine-1-yl)propyl)-2-methylphenyl)-2-methylpropionic acid] | 5.20% | 36.9% | > 30 µM |
| CC(C)(C(=O)O)c1ccc(CCCN2CCC(=C3c4ccccc4CCc4cc(Cl)ccc43)CC2)cc1 [Example 21, 2-(4-(3-(4-(2-chloro-10,11-dihydro-5H-dibenzo[a,d][7]cycloheptenyl-naphthylene)piperidine-1-yl)propyl)phenyl)-2-methylpropionic acid] | 16.54% | 42.6% | > 30 µM |

Further lines, with some results ahead:

| Inhibition rate (%) [1] | Structure (SMILES) | inhibition in vivo at 5 mg/kg [2] | IC50 (hERG potassium channel) |
| --- | --- | --- | --- |
| 13.28% | CC(C)(C(=O)O)c1ccc(C#N)c(CCCN2CCC(=C3c4ccc(Cl)cc4CCc4cccnc43)CC2)c1 [Example 26] | 68.2% | > 30 µM |
| 11.28% | CC(C)(C(=O)O)c1ccc(C(O)CCCN2CCC(=C3c4ccc(Cl)cc4CCc4cccnc43)CC2)cc1 (stereo not drawn) [Example 29] | 64.3% | > 30 µM |
